Our source for the viability and Activity values is ChEMBL document CHEMBL5608184, “Discovery and mechanistic insights into thieno[3,2-d]pyrimidine and heterocyclic fused pyrimidines inhibitors targeting tubulin for cancer therapy” (Eur J Med Chem, 2024).

SMILES strings stand for the structures.

In assay [1] the test system is SK-OV-3. Put plainly: Induction of apoptosis in human SK-OV-3 cells assessed as viable cells at 5 nM incubated for 48 hrs by Annexin V-APC-A/7-AAD-A staining based flow cytometry (reference value: 97.17 %). It is filed as functional. Conditions: read-out: Activity.
In assay [2] the test system is SK-OV-3. Put plainly: Induction of apoptosis in human SK-OV-3 cells assessed as necrotic cells at 1.25 nM incubated for 48 hrs by Annexin V-APC-A/7-AAD-A staining based flow cytometry (reference value: 0.21 %). It counts as functional. On the technique in general: Flow cytometry measures light scatter and fluorescence of single cells or particles in a stream.

Turning to `COc1ccc2c(c1)NC(=O)CN2c1nc(Cl)nc2ccsc12`, the viability at 0.005 µM in assay [1] is 62.1%.

For `COc1ccc(N(C)c2nc(Cl)nc3ccn(C)c23)cc1`, the Activity in assay [2] worked out at 0.56%.
